System: Wnt pathway (TCF-dependent transcription in HEK293 luciferase reporter cell line with ER-DSH construct)
Assay: Cellular assay for Wnt pathway activity (luciferase reporter)
Assay type: cell-based
Conditions: Homo sapiens; Wnt pathway inhibition, HEK293 luciferase reporter cells (ER-DSH, TCF promoter), 24 hours incubation, estrogen-induced
Method in brief: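 Compounds (30 μM down to 1 nM) were incubated 24 h on cells induced for TCF-dependent transcription with estrogen. Luciferase activity was read by luminescence, normalized to untreated vehicle control, and fitted for IC50.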

Row | Compound | IC50 [nM]
1 | CC(=O)Nc1ccc(-c2ccc(Oc3cncc(N(C)CCN(C)C(C)=O)n3)cc2)cn1 [Compound 182, N-{5-[4-(6-{[2-(Acetyl-methyl-amino)-ethyl]-methyl-amino}-pyrazin-2-yloxy)-phenyl]-pyridin-2-yl}-acetamide] | < 200
2 | CC(=O)N(C)CCN(C)c1cncc(Oc2ccc(C(=O)Nc3cccnc3)cc2)n1 [Compound 231, 4-(6-{[2-(Acetyl-methyl-amino)-ethyl]-methyl-amino}-pyrazin-2-yloxy)-N-pyridin-3-yl-benzamide] | < 200
3 | CNC(=O)CCN(C)c1cncc(Oc2ccc(-c3ccc(C)cn3)cc2)n1 [Compound 247, N-Methyl-3-(methyl-{6-[4-(5-methyl-pyridin-2-yl)-phenoxy]-pyrazin-2-yl}-amino)-propionamide] | < 200
4 | CCOC(=O)c1ccc(Oc2cncc(N(C)CCN(C)C(C)=O)n2)cc1 [Compound 115, 4-(6-{[2-(Acetyl-methyl-amino)-ethyl]-methyl-amino}-pyrazin-2-yloxy)-benzoic acid ethyl ester] | 200 to 1000
5 | CCOc1ccc(-c2ccc(Oc3cncc(N(C)CCN(C)C(C)=O)n3)cc2)c(F)c1F [Compound 180, N-(2-{[6-(4′-Ethoxy-2′,3′-difluoro-biphenyl-4-yloxy)-pyrazin-2-yl]-methyl-amino}-ethyl)-N-methyl-acetamide] | 200 to 1000
6 | CC(=O)N(C)CCN(C)c1cncc(Oc2ccc(-c3ccnc4ccccc34)cc2)n1 [Compound 195, N-Methyl-N-(2-{methyl-[6-(4-quinolin-4-yl-phenoxy)-pyrazin-2-yl]-amino}-ethyl)-acetamide] | < 200
7 | CC(=O)N(C)CCCc1cncc(Oc2ccc(F)cc2)n1 [Compound 264, N-{3-[6-(4-Fluoro-phenoxy)-pyrazin-2-yl]-propyl}-N-methyl-acetamide] | 1000 to 10000
8 | CC(=O)N(C)CCN(C)c1cncc(Oc2ccc(-c3cnc(N)cn3)cc2F)n1 [Compound 238, N-[2-({6-[4-(5-Amino-pyrazin-2-yl)-2-fluoro-phenoxy]-pyrazin-2-yl}-methyl-amino)-ethyl]-N-methyl-acetamide] | < 200
9 | COc1ccc(Oc2cncc(N(C)CCN(C)C(C)=O)n2)cc1 [Compound 30, N-(2-{[6-(4-Methoxy-phenoxy)-pyrazin-2-yl]-methyl-amino}-ethyl)-N-methyl-acetamide] | 200 to 1000
10 | CN(CCN(C)c1cncc(Oc2ccc(F)cc2)n1)C(=O)CO [Compound 286, N-(2-{[6-(4-Fluoro-phenoxy)-pyrazin-2-yl]-methyl-amino}-ethyl)-2-hydroxy-N-methyl-acetamide] | < 200
11 | CC(=O)N(C)CCN(C)c1cncc(Oc2ccc(-c3cc(C(F)(F)F)ccn3)cc2)n1 [Compound 128, N-Methyl-N-[2-(methyl-{6-[4-(4-trifluoro-methyl-pyridin-2-yl)-phenoxy]-pyrazin-2-yl}-amino)-ethyl]-acetamide] | 1000 to 10000
12 | CN(CCN1CCCCC1=O)c1cncc(Oc2ccc(F)cc2)n1 [Compound 116, 1-(2-{[6-(4-Fluoro-phenoxy)-pyrazin-2-yl]-methyl-amino}-ethyl)-piperidin-2-one] | < 200
13 | COc1ccc(-c2ccc(Oc3cncc(NCCN(C)C(C)=O)n3)cc2)nc1 [Compound 240, N-(2-{6-[4-(5-Methoxy-pyridin-2-yl)-phenoxy]-pyrazin-2-ylamino}-ethyl)-N-methyl-acetamide] | 200 to 1000
14 | CC(=O)c1ccc(Oc2cncc(N(C)CCN(C)C(C)=O)n2)cc1 [Compound 125, N-(2-{[6-(4-Acetyl-phenoxy)-pyrazin-2-yl]-methyl-amino}-ethyl)-N-methyl-acetamide] | 200 to 1000
15 | CC(=O)N(C)CCN(C)c1cncc(Oc2ccc(C3CCC(C)CO3)cc2)n1 (centres unmarked) [Compound 179, N-Methyl-N-[2-(methyl-{6-[4-(5-methyl-tetrahydro-pyran-2-yl)-phenoxy]-pyrazin-2-yl}-amino)-ethyl]-acetamide] | < 200
16 | CC(=O)N(C)CCN(C)c1cncc(OC2Cc3ccccc3C2)n1 [Compound 223, N-(2-{[6-(Indan-2-yloxy)-pyrazin-2-yl]-methyl-amino}-ethyl)-N-methyl-acetamide] | 200 to 1000
17 | CC(=O)NCCN(C)c1cncc(Oc2ccc(F)cc2)n1 [Compound 58, N-(2-{[6-(4-Fluoro-phenoxy)-pyrazin-2-yl]-methyl-amino}-ethyl)-acetamide] | 1000 to 10000
18 | CC(=O)N(C)CCN(C)c1cncc(Oc2ccc(N3CCNCC3)cc2)n1 [Compound 149, N-Methyl-N-(2-{methyl-[6-(4-piperazin-1-yl-phenoxy)-pyrazin-2-yl]-amino}-ethyl)-acetamide] | 1000 to 10000
19 | CC(=O)N(C)CCN(C)c1cncc(Oc2cccc(C)c2)n1 [Compound 44, N-Methyl-N-{2-[methyl-(6-m-tolyloxy-pyrazin-2-yl)-amino]-ethyl}-acetamide] | 1000 to 10000

Row | Compound | IC50 [nM]
20 | COc1ccc(Oc2cncc(N3CCCC(CNC(C)=O)C3)n2)cc1 (centres unmarked) [Compound 49, N-{1-[6-(4-Methoxy-phenoxy)-pyrazin-2-yl]-piperidin-3-ylmethyl}-acetamide] | 1000 to 10000
21 | CC(=O)N(C)CCN(C)c1cncc(Oc2noc3ccccc23)n1 [Compound 224, N-(2-{[6-(Benzo[d]isoxazol-3-yloxy)-pyrazin-2-yl]-methyl-amino}-ethyl)-N-methyl-acetamide] | < 200
22 | CC(=O)N(C)CCN(C)c1cncc(Oc2ccc(-c3cc(C)cc[n+]3[O-])cc2)n1 [Compound 174, N-Methyl-N-[2-(methyl-{6-[4-(4-methyl-1-oxy-pyridin-2-yl)-phenoxy]-pyrazin-2-yl}-amino)-ethyl]-acetamide] | 200 to 1000
23 | CC(=O)N(C)CCN(C)c1cncc(Oc2ccc(-c3ccc(CN(C)C(=O)CCCCCNC(=O)CCCCC4SCC5NC(=O)NC54)nc3)cc2)n1 (centres unmarked) [Compound 272, 6-[5-(2-Oxo-hexahydro-thieno[3,4-d]imidazol-6-yl)-pentanoyl-amino]-hexanoic acid {5-[4-(6-{[2-(acetyl-methyl-amino)-ethyl]-methyl-amino}-pyrazin-2-yloxy)-phenyl]-pyridin-2-ylmethyl}-methyl-amide] | < 200
24 | CCOc1ccc(Oc2cncc(N(C)CCN(C)C(C)=O)n2)cc1 [Compound 123, N-(2-{[6-(4-Ethoxy-phenoxy)-pyrazin-2-yl]-methyl-amino}-ethyl)-N-methyl-acetamide] | < 200
25 | CC(=O)N(C)CCN(C)c1cncc(Oc2ccc(Cl)cc2)n1 [Compound 36, N-(2-{[6-(4-Chloro-phenoxy)-pyrazin-2-yl]-methyl-amino}-ethyl)-N-methyl-acetamide] | 200 to 1000
26 | CC(=O)N(C)CCNc1cncc(Oc2ccc(-c3ccc(CO)cn3)cc2)n1 [Compound 293, N-(2-{6-[4-(5-Hydroxy-methyl-pyridin-2-yl)-phenoxy]-pyrazin-2-ylamino}-ethyl)-N-methyl-acetamide] | 200 to 1000
27 | CC(=O)N(C)CCN(C)c1cncc(Oc2ccc(Br)c(C)c2)n1 [Compound 111, N-(2-{[6-(4-Bromo-3-methyl-phenoxy)-pyrazin-2-yl]-methyl-amino}-ethyl)-N-methyl-acetamide] | 200 to 1000
28 | CC(=O)N(C)CCN(C)c1cncc(Oc2ccc(-c3ccccc3S(C)(=O)=O)cc2)n1 [Compound 150, N-(2-{[6-(2′-Methane-sulfonyl-biphenyl-4-yloxy)-pyrazin-2-yl]-methyl-amino}-ethyl)-N-methyl-acetamide] | < 200
29 | COc1ccc(Oc2cncc(N(C)CCNC(C)=O)n2)cc1 [Compound 59, N-(2-{[6-(4-Methoxy-phenoxy)-pyrazin-2-yl]-methyl-amino}-ethyl)-acetamide] | 200 to 1000
30 | CC(=O)N(C)CCN(C)c1cncc(Oc2ccc3c(c2)OCO3)n1 [Compound 91, N-(2-{[6-(Benzo[1,3]dioxol-5-yloxy)-pyrazin-2-yl]-methyl-amino}-ethyl)-N-methyl-acetamide] | 200 to 1000
31 | CCOC(=O)c1ncoc1-c1ccc(Oc2cncc(N(C)CCN(C)C(C)=O)n2)cc1 [Compound 187, 5-[4-(6-{[2-(Acetyl-methyl-amino)-ethyl]-methyl-amino}-pyrazin-2-yloxy)-phenyl]-oxazole-4-carboxylic acid ethyl ester] | 200 to 1000
32 | CC(=O)N(C)CCN(C)c1cncc(Oc2ccc(-c3ccncc3C#N)cc2F)n1 [Compound 228, N-[2-({6-[4-(3-Cyano-pyridin-4-yl)-2-fluoro-phenoxy]-pyrazin-2-yl}-methyl-amino)-ethyl]-N-methyl-acetamide] | < 200
33 | CC(=O)N(C)CCN(C)c1cncc(Oc2ccc(Cl)cc2Cl)n1 [Compound 96, N-(2-{[6-(2,4-Dichloro-phenoxy)-pyrazin-2-yl]-methyl-amino}-ethyl)-N-methyl-acetamide] | 200 to 1000
34 | CC(=O)N(C)CCN(C)c1cncc(Oc2ccc(Cl)cc2F)n1 [Compound 110, N-(2-{[6-(4-Chloro-2-fluoro-phenoxy)-pyrazin-2-yl]-methyl-amino}-ethyl)-N-methyl-acetamide] | 200 to 1000
35 | CC(=O)N(C)CCN(C)c1cncc(Oc2ccc(-c3ncccn3)cc2)n1 [Compound 161, N-Methyl-N-(2-{methyl-[6-(4-pyrimidin-2-yl-phenoxy)-pyrazin-2-yl]-amino}-ethyl)-acetamide] | 200 to 1000
36 | CC(=O)N(C)CCCc1cncc(Oc2ccc(-c3ccc(C)cn3)cc2F)n1 [Compound 268, N-(3-{6-[2-Fluoro-4-(5-methyl-pyridin-2-yl)-phenoxy]-pyrazin-2-yl}-propyl)-N-methyl-acetamide] | < 200
37 | CC(=O)Nc1ccc(-c2ccc(Oc3cncc(CCCN(C)C(C)=O)n3)cc2)cn1 [Compound 219, N-(3-{6-[4-(6-Acetylamino-pyridin-3-yl)-phenoxy]-pyrazin-2-yl}-propyl)-N-methyl-acetamide] | 200 to 1000
38 | CC(=O)N(C)CCN(C)c1cncc(Oc2ccc(-c3cccc(C)n3)cc2)n1 [Compound 160, N-Methyl-N-[2-(methyl-{6-[4-(6-methyl-pyridin-2-yl)-phenoxy]-pyrazin-2-yl}-amino)-ethyl]-acetamide] | < 200

Source: US9493444B2 (Merck Patent GmbH, priority 2012, dated 2016)
